Publication PMC10969742, “A Phase I Study of the Oral Dual-Acting Pan-PI3K/mTOR Inhibitor Bimiralisib in Patients with Advanced Solid Tumors” (Cancers, 2024)
Like-named read-outs stand apart in the source and are kept apart here.

Key:
[1] = Plasma pharmacokinetics of bimiralisib, non-compartmental analysis (LC-MS); type: in vivo, human; conditions: for Cmax / Tmax / AUC(0-t): human, plasma, oral; for Cmax: read-out: Cmax Mean (%CV)
Description: Blood samples were collected to enable full PK profiling of bimiralisib. The PK samples were taken pre-dose and at 0.5, 1, 2, 4, 6, 8, and 24 h post-dosing in the three schedules, with additional timepoints depending on the schedule (48 h in the continuous schedule, 12, 16, and 48 h in intermittent schedule A and 12, 16, and 72 h in intermittent schedule B). PK sampling was repeated on cycle 1 Day 8 (continuous schedule: pre-dose and 1 h post-dose; intermittent schedules A and B: pre-dose and 0.5, 1, 2, 4, 6, 8, and 24 h post-dose), on cycle 1 Day 15 (continuous schedule: pre-dose and 0.5, 1, 2, 4, 6 and 8 h post-dose; intermittent schedules A and B: pre-dose and 4 h post-dose), and on cycle 2 Day 1 (continuous dosing: pre-dose and 1 h post-dose). Samples were sent to a central laboratory for analysis using liquid-chromatography mass spectrometry. The pharmacokinetics of bimiralisib were determined by non-compartmental analysis. Area under the concentration vs. time curve (AUC) was calculated using the linear up log down trapezoidal method. Accumulation was calculated as the ratio of cycle 1 on Day 15 AUC0–8h versus cycle 1 on Day -3 AUC0–8h.

advanced solid tumors = experiment: Efficacy: objective tumor response per RECIST 1.1; type: in vivo, human
Description: Efficacy of treatment was determined by measuring reported lesions at baseline and after every 2 cycles.

[2] = PR patient, head and neck squamous cancer, NOTCH1T1997M, intermittent schedule A 200 mg

Nc1cc(C(F)(F)F)c(-c2nc(N3CCOCC3)nc(N3CCOCC3)n2)cn1 [bimiralisib, 5-(4,6-Dimorpholino-1,3,5-triazin-2-yl)-4-(trifluoromethyl)pyridin-2-amine]
Cmax ([1]; 140 mg, Intermittent Dose Schedule A, 140 mg, Day -3, 6 patients): 709 ng/mL
Tmax ([1]; 140 mg, Intermittent Dose Schedule A, 140 mg, Day -3, 6 patients, read-out: Tmax Median, (Range)): 1 h
AUC(0-t) ([1]; 140 mg, Intermittent Dose Schedule B, 140 mg, Day 1, 3 patients, read-out: AUC0–8 Geometric Mean (%CV)): 4150 ng·h/mL
AUC(0-t) ([1]; 140 mg, Intermittent Dose Schedule B, 140 mg, Day 1, 3 patients, read-out: AUC0–24 Geometric Mean (%CV)): 9740 ng·h/mL
Cmax ([1]; 140 mg, Intermittent Dose Schedule B, 140 mg, Day 1, 3 patients): 1010 ng/mL
Tmax ([1]; 140 mg, Intermittent Dose Schedule B, 140 mg, Day 1, 3 patients, read-out: Tmax Median, (Range)): 1 h
AUC(0-t) ([1]; 140 mg, Intermittent Dose Schedule B, 140 mg, Day 8, 3 patients, read-out: AUC0–8 Geometric Mean (%CV)): 5160 ng·h/mL
Cmax ([1]; 140 mg, Intermittent Dose Schedule B, 140 mg, Day 8, 3 patients): 1560 ng/mL
Tmax ([1]; 140 mg, Intermittent Dose Schedule B, 140 mg, Day 8, 3 patients, read-out: Tmax Median, (Range)): 1 h
AUC(0-t) ([1]; 140 mg, Intermittent Dose Schedule B, 140 mg, Day 8, n = 2, read-out: AUC0–24 Geometric Mean (%CV)): 12600 ng·h/mL
AUC(0-t) ([1]; 160 mg, Intermittent Dose Schedule A, 160 mg, Day 8, 3 patients, read-out: AUC0–8 Geometric Mean (%CV)): 4080 ng·h/mL
AUC(0-t) ([1]; 160 mg, Intermittent Dose Schedule A, 160 mg, Day 8, 3 patients, read-out: AUC0–24 Geometric Mean (%CV)): 11100 ng·h/mL
Cmax ([1]; 160 mg, Intermittent Dose Schedule A, 160 mg, Day 8, 3 patients): 857 ng/mL
Tmax ([1]; 160 mg, Intermittent Dose Schedule A, 160 mg, Day 8, 3 patients, read-out: Tmax Median, (Range)): 2 h
AUC(0-t) ([1]; 160 mg, Intermittent Dose Schedule A, 160 mg, Day -3, 3 patients, read-out: AUC0–8 Geometric Mean (%CV)): 2480 ng·h/mL
AUC(0-t) ([1]; 160 mg, Intermittent Dose Schedule A, 160 mg, Day -3, 3 patients, read-out: AUC0–24 Geometric Mean (%CV)): 5830 ng·h/mL
Cmax ([1]; 160 mg, Intermittent Dose Schedule A, 160 mg, Day -3, 3 patients): 539 ng/mL
Tmax ([1]; 160 mg, Intermittent Dose Schedule A, 160 mg, Day -3, 3 patients, read-out: Tmax Median, (Range)): 1 h
AUC(0-t) ([1]; 160 mg, Intermittent Dose Schedule B, 160 mg, Day 1, 3 patients, read-out: AUC0–8 Geometric Mean (%CV)): 1050 ng·h/mL
AUC(0-t) ([1]; 160 mg, Intermittent Dose Schedule B, 160 mg, Day 1, 3 patients, read-out: AUC0–24 Geometric Mean (%CV)): 3700 ng·h/mL
Cmax ([1]; 160 mg, Intermittent Dose Schedule B, 160 mg, Day 1, 3 patients): 317 ng/mL
Tmax ([1]; 160 mg, Intermittent Dose Schedule B, 160 mg, Day 1, 3 patients, read-out: Tmax Median, (Range)): 12 h
AUC(0-t) ([1]; 160 mg, Intermittent Dose Schedule B, 160 mg, Day 8, 3 patients, read-out: AUC0–8 Geometric Mean (%CV)): 1770 ng·h/mL
Cmax ([1]; 160 mg, Intermittent Dose Schedule B, 160 mg, Day 8, 3 patients): 325 ng/mL
Tmax ([1]; 160 mg, Intermittent Dose Schedule B, 160 mg, Day 8, 3 patients, read-out: Tmax Median, (Range)): 8 h
AUC(0-t) ([1]; 200 mg, Intermittent Dose Schedule A, 200 mg, Day 8, 4 patients, read-out: AUC0–8 Geometric Mean (%CV)): 4460 ng·h/mL
Tmax ([1]; 200 mg, Intermittent Dose Schedule A, 200 mg, Day 8, 4 patients, read-out: Tmax Median, (Range)): 2 h
AUC(0-t) ([1]; 200 mg, Intermittent Dose Schedule A, 200 mg, Day 8, n = 2, read-out: AUC0–24 Geometric Mean (%CV)): 15900 ng·h/mL
AUC(0-t) ([1]; 200 mg, Intermittent Dose Schedule A, 200 mg, Day -3, 4 patients, read-out: AUC0–8 Geometric Mean (%CV)): 3480 ng·h/mL
AUC(0-t) ([1]; 200 mg, Intermittent Dose Schedule A, 200 mg, Day -3, 4 patients, read-out: AUC0–24 Geometric Mean (%CV)): 7050 ng·h/mL
Cmax ([1]; 200 mg, Intermittent Dose Schedule A, 200 mg, Day -3, 4 patients): 1030 ng/mL
Tmax ([1]; 200 mg, Intermittent Dose Schedule A, 200 mg, Day -3, 4 patients, read-out: Tmax Median, (Range)): 2 h
AUC(0-t) ([1]; 200 mg, Intermittent Dose Schedule B, 200 mg, Day 1, 4 patients, read-out: AUC0–8 Geometric Mean (%CV)): 3190 ng·h/mL
AUC(0-t) ([1]; 200 mg, Intermittent Dose Schedule B, 200 mg, Day 1, 4 patients, read-out: AUC0–24 Geometric Mean (%CV)): 8010 ng·h/mL
Cmax ([1]; 200 mg, Intermittent Dose Schedule B, 200 mg, Day 1, 4 patients): 734 ng/mL
Tmax ([1]; 200 mg, Intermittent Dose Schedule B, 200 mg, Day 1, 4 patients, read-out: Tmax Median, (Range)): 1.5 h
AUC(0-t) ([1]; 200 mg, Intermittent Dose Schedule B, 200 mg, Day 8, 4 patients, read-out: AUC0–8 Geometric Mean (%CV)): 5800 ng·h/mL
Cmax ([1]; 200 mg, Intermittent Dose Schedule B, 200 mg, Day 8, 4 patients): 1200 ng/mL
Tmax ([1]; 200 mg, Intermittent Dose Schedule B, 200 mg, Day 8, 4 patients, read-out: Tmax Median, (Range)): 1.5 h
AUC(0-t) ([1]; 200 mg, Intermittent Dose Schedule B, 200 mg, Day 8, n = 3, read-out: AUC0–24 Geometric Mean (%CV)): 14700 ng·h/mL
Tmax ([1]; after the first dose, all three dosing schedules, range, 0.5–48 h, read-out: Median time to reach the peak plasma concentration (Tmax)): 2 h
Dose-exposure relationship ([1]; intermittent doses higher than 140 mg): less than linear dose-exposure relationship
Best Overall Response: Complete response (CR), Number of Patients (advanced solid tumors; All Schedules, n = 70): 0 n (%)
Best Overall Response: Missing (response could not be assessed), Number of Patients (advanced solid tumors; All Schedules, n = 70): 16 (22.9%) n (%)
Best Overall Response: Non-CR/Non-PD, Number of Patients (advanced solid tumors; All Schedules, n = 70): 4 (5.7%) n (%)
Best Overall Response: Partial response, Number of Patients (advanced solid tumors; All Schedules, n = 70): 1 (1.4%) n (%)
Best Overall Response: Progressive disease (PD), Number of Patients (advanced solid tumors; All Schedules, n = 70): 19 (27.1%) n (%)
Best Overall Response: Stable disease, Number of Patients (advanced solid tumors; All Schedules, n = 70): 30 (43%) n (%)
Best Overall Response: Complete response (CR), Number of Patients (advanced solid tumors; Continuous (n = 21)): 0 n (%)
Best Overall Response: Missing (response could not be assessed), Number of Patients (advanced solid tumors; Continuous (n = 21)): 9 (42.9%) n (%)
Best Overall Response: Non-CR/Non-PD, Number of Patients (advanced solid tumors; Continuous (n = 21)): 0 n (%)
Best Overall Response: Partial response, Number of Patients (advanced solid tumors; Continuous (n = 21)): 0 n (%)
Best Overall Response: Progressive disease (PD), Number of Patients (advanced solid tumors; Continuous (n = 21)): 7 (33.3%) n (%)
Best Overall Response: Stable disease, Number of Patients (advanced solid tumors; Continuous (n = 21)): 5 (23.8%) n (%)
Best Overall Response: Complete response (CR), Number of Patients (advanced solid tumors; Intermittent A, n = 25): 0 n (%)
Best Overall Response: Missing (response could not be assessed), Number of Patients (advanced solid tumors; Intermittent A, n = 25): 5 (20%) n (%)
Best Overall Response: Non-CR/Non-PD, Number of Patients (advanced solid tumors; Intermittent A, n = 25): 1 (4%) n (%)
Best Overall Response: Partial response, Number of Patients (advanced solid tumors; Intermittent A, n = 25): 1 (4%) n (%)
Best Overall Response: Progressive disease (PD), Number of Patients (advanced solid tumors; Intermittent A, n = 25): 6 (24%) n (%)
Best Overall Response: Stable disease, Number of Patients (advanced solid tumors; Intermittent A, n = 25): 12 (48%) n (%)
Best Overall Response: Complete response (CR), Number of Patients (advanced solid tumors; Intermittent B, n = 24): 0 n (%)
Best Overall Response: Missing (response could not be assessed), Number of Patients (advanced solid tumors; Intermittent B, n = 24): 2 (8.3%) n (%)
Best Overall Response: Non-CR/Non-PD, Number of Patients (advanced solid tumors; Intermittent B, n = 24): 3 (12.5%) n (%)
Best Overall Response: Partial response, Number of Patients (advanced solid tumors; Intermittent B, n = 24): 0 n (%)
Best Overall Response: Progressive disease (PD), Number of Patients (advanced solid tumors; Intermittent B, n = 24): 6 (25%) n (%)
Best Overall Response: Stable disease, Number of Patients (advanced solid tumors; Intermittent B, n = 24): 13 (54.2%) n (%)
Duration of response (advanced solid tumors; [2]): 8.4 months
Reduction in sum of target lesions per RECIST 1.1 (advanced solid tumors; [2]): 85%
Time to response (advanced solid tumors; [2]): 45 days
Patients with PR as best overall response (advanced solid tumors; all 70 patients): 1.4%
Complete response (CR) (advanced solid tumors; all patients): No patient achieved CR
Patients with SD (advanced solid tumors; all patients, 30 patients): 43.0%
Number of partial responses (advanced solid tumors; all patients, head and neck squamous cancer patient with NOTCH1T1997M mutation): one
Patients with SD (advanced solid tumors; continuous dosing): 23.8%
Best overall response of single patient (advanced solid tumors; head and neck squamous cancer, loss of function NOTCH1T1997M mutation, intermittent schedule A 200 mg): partial response
Patients with SD (advanced solid tumors; intermittent schedule A): 48.0%
Patients with SD (advanced solid tumors; intermittent schedule B): 54.2%
